Experimental data from the supplement of paper PMC8960247.
Counter-ions that a name gives are not always drawn. ± gives the standard error.

Key:
621-102 (TSC2-deficient) = assay: relative viability vs DMSO; higher = less cytotoxic; details: serum: 10% FBS, 72 h
621-103 (TSC2-rescued) = assay: as above; details: serum: 10% FBS, 72 h
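Also: immortalized renal angiomyolipoma cells stably carrying empty vector or TSC2, dosed in 384-well plates in DMEM, viability normalized to vehicle-treated wells within each plate.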

SMILES | relative viability (621-102 (TSC2-deficient); 0.0001 µM) | relative viability (621-102 (TSC2-deficient); 0.001 µM) | relative viability (621-102 (TSC2-deficient); 0.01 µM) | relative viability (621-102 (TSC2-deficient); 0.1 µM) | relative viability (621-102 (TSC2-deficient); 1 µM) | relative viability (621-102 (TSC2-deficient); 10 µM) | relative viability (621-103 (TSC2-rescued); 0.0001 µM) | relative viability (621-103 (TSC2-rescued); 0.001 µM) | relative viability (621-103 (TSC2-rescued); 0.01 µM) | relative viability (621-103 (TSC2-rescued); 0.1 µM) | relative viability (621-103 (TSC2-rescued); 1 µM) | relative viability (621-103 (TSC2-rescued); 10 µM)
C[C@@H](Oc1cc(-n2cnc3ccc(CN4CCN(C)CC4)cc32)sc1C(N)=O)c1ccccc1C(F)(F)F | 97.01 ± 0.82% | 88.1 ± 1.3% | 64.5 ± 3.1% | 45.3 ± 0.63% | 40.7 ± 3.1% | 27.1 ± 3.8% | 100 ± 1.7% | 71.9 ± 4.3% | 60.2 ± 0.98% | 48.49 ± 0.29% | 40.7 ± 0.62% | 9.95 ± 0.89%
CO[C@H]1C[C@@H]2CC[C@@H](C)[C@@](O)(O2)C(=O)C(=O)N2CCCC[C@H]2C(=O)O[C@H]([C@H](C)C[C@@H]2CC[C@@H](OCCO)[C@H](OC)C2)CC(=O)[C@H](C)/C=C(\C)[C@@H](O)[C@@H](OC)C(=O)[C@H](C)C[C@H](C)/C=C/C=C/C=C/1C [Everolimus (RAD001)] | 46.7 ± 2.2% | 56.4 ± 1.5% | 49.8 ± 4.2% | 52.7 ± 3.3% | 54.2 ± 3% | 50.3 ± 3.7% | 71.1 ± 3.2% | 69.7 ± 1.3% | 68.2 ± 1.6% | 71.6 ± 2% | 75.3 ± 2.6% | 67.6 ± 0.97%
Cc1[nH]nc2ccc(-c3cncc(OC[C@@H](N)Cc4ccccc4)c3)cc12 | 114.1 ± 0.3% | 108 ± 3.1% | 97.8 ± 2.1% | 99.05 ± 0.49% | 66.5 ± 1.1% | 2.57 ± 0.016% | 98.7 ± 4.7% | 89.14 ± 0.74% | 95.77 ± 0.18% | 101 ± 4% | 62.2 ± 1% | 6.08 ± 0.71%
Nc1nc(Nc2ccc(S(N)(=O)=O)cc2)nn1C(=O)c1c(F)cccc1F | 107 ± 1.5% | 102.5 ± 0.3% | 107 ± 1.8% | 104 ± 1.3% | 97 ± 1.4% | 49.9 ± 5.8% | 98.71 ± 0.9% | 105 ± 2.8% | 106.4 ± 0.39% | 110 ± 4.5% | 93.5 ± 4.2% | 40.01 ± 0.12%
C[C@H](N[C@@H](CCc1ccccc1)C(=O)O)C(=O)N1CCC[C@H]1C(=O)O [Enalaprilat] | 97.6 ± 3.3% | 100 ± 4.3% | 96.26 ± 0.64% | 98.48 ± 0.16% | 95.91 ± 0.29% | 101.3 ± 0.23% | 101 ± 4% | 101.1 ± 0.31% | 95.29 ± 0.25% | 98.36 ± 0.18% | 101 ± 2.5% | 96.34 ± 0.17%
Cc1c(NC(=O)OC[C@@H]2COCCN2)cn2ncnc(Nc3ccc4c(cnn4Cc4cccc(F)c4)c3)c12 | 101 ± 2.7% | 104 ± 2% | 97.6 ± 2% | 104.2 ± 0.79% | 96.3 ± 2.8% | 81.33 ± 0.65% | 100.9 ± 0.54% | 100 ± 1.2% | 102 ± 1.5% | 101.3 ± 0.88% | 101 ± 1.9% | 82.5 ± 5.9%
CNC(C)C1CCC(N)C(OC2C(N)CC(N)C(OC3OCC(C)(O)C(NC)C3O)C2O)O1 (stereo not given) [Gentamycin sulfate (Gentacycol)] | 104 ± 4.4% | 109 ± 2.3% | 113 ± 2.6% | 109 ± 4.9% | 106.5 ± 0.17% | 91.9 ± 1.7% | 99.8 ± 1.9% | 89.3 ± 9.2% | 89.5 ± 1.6% | 94.13 ± 0.19% | 88.3 ± 7.1% | 96.9 ± 3.5%
CNCc1ccc(-c2[nH]c3cc(F)cc4c3c2CCNC4=O)cc1 | 130 ± 2.7% | 109 ± 3.2% | 128 ± 4.3% | 126 ± 4% | 120 ± 1.7% | 98.5 ± 1.6% | 104 ± 1.2% | 104 ± 1.1% | 104.8 ± 0.35% | 107.6 ± 0.23% | 111 ± 1.2% | 88 ± 1.9%
CC(NCCc1ccc(O)cc1)C(O)c1ccc(O)cc1 (stereo not given) [Ritodrine HCl] | 110 ± 1.6% | 112.1 ± 0.64% | 101 ± 2.7% | 100 ± 1.3% | 100 ± 1.4% | 102 ± 6.3% | 100 ± 5% | 98 ± 2.1% | 102 ± 2.8% | 98.2 ± 6.2% | 97.3 ± 6.2% | 86.5 ± 1.5%
CNC[C@H](O)c1ccc(O)c(O)c1 [Epinephrine bitartrate] | 119 ± 1.4% | 118 ± 1.5% | 105 ± 4% | 101 ± 2.4% | 103 ± 1.3% | 100 ± 1.5% | 102 ± 2.1% | 95.4 ± 4.3% | 93.4 ± 4.4% | 92.99 ± 0.3% | 96 ± 1.2% | 95.31 ± 0.25%
